Results from patent US5821258A, “Phenylbenzimidazole derivatives” (priority 1994, dated 1998).
Values after ≈ are worked out from the molar mass of the structure shown. Where a name gives a salt, the structure may show the parent alone.

Tested on: B16 melanoma cells
Assay: in vitro inhibitory activity on tumor cell growth, B16 melanoma cells (Test Example 2)
Assay type: cell-based
Details: 72 h; B16 mouse melanoma cells, 37° C., 3 days, 5% CO2; concentration for 50% growth inhibitory effect; read-out: IC50 (anti-tumor activity)
Procedure: The anticancer activity of each compound will be described. […] This test was carried out by measuring an in vitro inhibitory activity on tumor cell growth. That is to say, the B16 melanoma cells of a mouse were planted on a culture plate having 96 cells, and a compound was then added after one day and the cells were cultured at 37° C. for 3 days in 5% CO2. Next, a compound concentration (IC50) necessary to accomplish a 50% growth inhibitory effect was determined in accordance with a procedure described in Cancer. Res., Vol. 48, p. 589-601 (1988). The unit of the drug concentration was μg/ml. The result of distamycin is also simultaneously shown as a comparative example.

Row | Structure (SMILES) | IC50 [µg/mL]
1 | Cn1cc(NC(=O)c2cc(NC(=O)c3cc(NC=O)cn3C)cn2C)cc1C(=O)NCCC(=N)N [Distamycin, distamycin, reference compound] | 36 (≈ 74.8 µM)

Same assay, conditions: B16 mouse melanoma cells, 37° C., 3 days, 5% CO2; concentration for 50% growth inhibitory effect

Row | Structure (SMILES) | IC50 (anti-tumor activity) [µg/mL]
2 | CN(C)CCCNC(=O)c1ccc2[nH]c(-c3ccc(NC(=O)CCCc4ccc(N(CCCl)CCCl)cc4)cc3)nc2c1 [Compound 29, 1H-2-[4-[[4-[4-[N,N-bis(2-chloroethyl)amino]phenyl]butyryl]amino]phenyl]benzimidazole-5-[N-[3-(dimethylamino)propyl]]carboxyamide] | 3.05 (≈ 4.89 µM)
3 | Cc1cc(NC(=O)c2ccc3[nH]c(-c4cccc(NC(=O)CC[S+](C)C)c4)nc3c2)ccc1N(CCCl)CCCl.[I-] [Compound 2044, 2-[N-[3-[5-[N-[3-methyl-4-[N,N-bis(2-chloroethyl)amino]phenyl]carbamoyl]-1Hbenzimidazole-2-yl]phenyl]]carbamoylethyl-dimethylsulfonium iodide] | 0.72
4 | N=C(N)NCC(=O)Nc1cccc(-c2nc3cc(C(=O)Nc4ccc(N(CCCl)CCCl)cc4)ccc3[nH]2)c1 [Compound 2001, 1H-2-[3-(guanidinoacetylamino)phenyl]benzimidazole-5-[N-[4-[N,N-bis(2-chloroethyl)amino)phenyl]]carboxyamide dihydrochloride] | 0.82
5 | Cc1cc(NC(=O)c2ccc3[nH]c(-c4cccc(NC(=O)CCCNC(=N)N)c4)nc3c2)ccc1N(CCCl)CCCl [Compound 2014, 1H-2-[3-[[4-(guanidino)butyryl]amino]phenyl]benzimidazole-5-[N-[3-methyl-4-[N,N-bis(2-chloroethyl)amino]phenyl]]carboxyamide dihydrochloride] | 1.18
6 | N=C(N)CCNC(=O)c1ccc2[nH]c(-c3cccc(NC(=O)CCCc4ccc(N(CCCl)CCCl)cc4)c3)nc2c1 [Compound 47, 1H-2-[3-[[4-[4-[N,N-bis(2-chloroethyl)amino]phenyl]butyryl]amino]phenyl]benzimidazole-5-[N-(2-amidinoethyl]carboxyamide hydrochloride] | 0.38
7 | Cc1cc(NC(=O)c2ccc3[nH]c(-c4cccc(NC(=O)CNC(=N)N)c4)nc3c2)ccc1N(CCCl)CCCl [Compound 2004, 1H-2-[3-(guanidinoacetylamino)phenyl]benzimidazole-5-[N-[3-methyl-4-[N,N-bis(2-chloroethyl)amino]phenyl]]carboxyamide dihydrochloride] | 0.53
8 | N=C(N)NCC(=O)Nc1ccc(-c2nc3cc(C(=O)Nc4cccc(N(CCCl)CCCl)c4)ccc3[nH]2)cc1 [Compound 1010, 1H-2-[4-(guanidinoacetylamino)phenyl]benzimidazole-5-[N-[3-[N,N-bis(2-chloroethyl)amino]phenyl]]carboxyamide] | 3.19 (≈ 5.62 µM)
9 | N=C(N)NCC(=O)Nc1cccc(-c2nc3cc(C(=O)Nc4ccc(N(CCCl)CCCl)c(Cl)c4)ccc3[nH]2)c1 [Compound 2006, 1H-2-[3-(guanidinoacetylamino)phenyl]benzimidazole-5-[N-[3-chloro-4-[N,N-bis(2-chloroethyl)amino]phenyl]]carboxyamide dihydrochloride] | 0.65
10 | N=C(N)NCCCC(=O)Nc1cccc(-c2nc3cc(C(=O)Nc4ccc(N(CCCl)CCCl)cc4)ccc3[nH]2)c1 [Compound 2011, 1H-2-[3-[4-(guanidino)butyryl]amino]phenyl]benzimidazole-5-[N-[4-[N,N-bis(2-chloroethyl)amino)phenyl]]carboxyamide dihydrochloride] | 0.97
11 | N=C(N)CCNC(=O)c1ccc2[nH]c(-c3ccc(NC(=O)CCCc4ccc(N(CCCl)CCCl)cc4)cc3)nc2c1 [Compound 2, 1H-2-[4-[[4-[4-[N,N-bis(2-chloroethyl)amino]phenyl]butyryl]amino]phenyl]benzimidazole-5-[N-(2-amidinoethyl]carboxyamide hydrochloride] | 0.58
12 | O=C(CCN1CCOCC1)Nc1cccc(-c2nc3cc(C(=O)Nc4ccc(N(CCCl)CCCl)cc4)ccc3[nH]2)c1 [Compound 2051, 1H-2-[3-[(3-morpholinopropionyl)amino]phenyl]benzimidazole-5-[N-[4-[N,N-bis(2-chloroethyl)amino]phenyl]]carboxyamide hydrochloride] | 0.49
13 | N=C(N)NCCCC(=O)Nc1cccc(-c2nc3cc(C(=O)Nc4ccc(N(CCCl)CCCl)c(Cl)c4)ccc3[nH]2)c1 [Compound 2016, 1H-2-[3-[[4-(guanidino)butyryl]amino]phenyl]benzimidazole-5-[N-[3-chloro-4-[N,N-bis(2-chloroethyl)amino]phenyl]]carboxyamide dihydrochloride] | 2.08
14 | N=C(N)NCC(=O)Nc1ccc(-c2nc3cc(C(=O)Nc4ccc(N(CCCl)CCCl)cc4)ccc3[nH]2)cc1 [Compound 1001, 1H-2-[4-(guanidinoacetylamino)phenyl]benzimidazole-5-[N-[4-[N,N-bis(2-chloroethyl)amino)phenyl]]carboxyamide dihydrochloride] | 0.36
15 | Cc1cc(NC(=O)c2ccc3[nH]c(-c4cccc(NC(=O)CCN5CCOCC5)c4)nc3c2)ccc1N(CCCl)CCCl [Compound 2053, 1H-2-[3-[(3-morpholinopropionyl)amino]phenyl]benzimidazole-5-[N-[4-[N,N-bis(2-chloroethyl)]amino-3-methyl]phenyl]carboxyamide hydrochloride] | 0.33
16 | C[S+](C)CCC(=O)Nc1cccc(-c2nc3cc(C(=O)Nc4ccc(N(CCCl)CCCl)c(Cl)c4)ccc3[nH]2)c1 [Compound 2046, 2-[N-[3-[5-[N-[3-chloro-4-[N,N-bis(2-chloroethyl)amino]phenyl]carbamoyl]-1H-benzimidazole-2-yl]phenyl]carbamoylethyl]dimethylsulfonium iodide] | 0.39
17 | O=C(CCN1CCOCC1)Nc1cccc(-c2nc3cc(C(=O)Nc4ccc(N(CCCl)CCCl)c(Cl)c4)ccc3[nH]2)c1 [Compound 2054, 1H-2-[3-[(3-morpholinopropionyl)amino]phenyl]benzimidazole-5-[N-[3-chloro-4-[N-bis(2-chloroethyl)amino]phenyl]]carboxyamide hydrochloride] | 0.41
18 | C[S+](C)CCC(=O)Nc1cccc(-c2nc3cc(C(=O)Nc4ccc(N(CCCl)CCCl)cc4)ccc3[nH]2)c1 [Compound 2041, 2-[N-[3-[5-[N-[4-[N,N-bis(2-chloroethyl)amino]phenylnyl]carbamoyl]-1H-benzimidazole-2-yl]phenyl]]carbamoylethyl-dimethylsulfonium iodide] | 0.37
19 | CN(C)CCCC(=O)Nc1cccc(-c2nc3cc(C(=O)Nc4ccc(N(CCCl)CCCl)cc4)ccc3[nH]2)c1 [Compound 2031, 1H-2-[3-[[4-(dimethylamino)butyryl]amino]phenyl]benzimidazole-5-[N-[4-[N,N-bis(2-chloroethyl)amino)phenyl]]carboxyamide dihydrochloride] | 1.56
20 | Cc1cc(NC(=O)c2ccc3[nH]c(-c4cccc(NC(=O)Cc5cccnc5)c4)nc3c2)ccc1N(CCCl)CCCl [Compound 2063, 1H-2-[3-(3-pyridylacetylamino)phenyl]benzimidazole-5-[N-[3-methyl-4-[N,N-bis(2-chloroethyl)amino]phenyl]]carboxyamide] | 3.48 (≈ 5.79 µM)

Tested on: mouse colon cancer cells of Colon 26
Assay: Anti-tumor test in mice implanted with Colon 26 cells, tumor weight on 15th day (Test Example 3)
Assay type: in vivo
Details: 10 mg/kg, tail vein on 1st day; Colon 26 s.c. in female CDF1 mouse; tumor weight on 15th day vs control 100%
Procedure: A cell floating solution having 1×10^7 mouse colon cancer cells of Colon 26 per ml of HBSS (Hanks' Balanced Salt Solution) was prepared. Next, 0.1 ml of this cell floating solution was implanted in the side abdomen hypodermis of a female CDFl mouse (0 day). On the day after the tumor implantation (1st day), the weight of the mouse was measured, and a solution of a compound (a 5% glucose solution containing 5% Tween 80) was administered into the tail vein of the mouse. On the 15th day, the tumor was extracted, and its weight was then measured.
An average tumor weight ratio of each experimental sample was calculated as a T/C value on the assumption that the average tumor weight ratio of a control to which any compound was not administered was 100%.
The T/C values correspond to compound numbers, respectively, and each value in the parentheses represents the concentration of the drug at the time when its T/C value was obtained.

Row | Structure (SMILES) | T/C [%]
21 | N=C(N)NCC(=O)Nc1cccc(-c2nc3cc(C(=O)Nc4ccc(N(CCCl)CCCl)c(Cl)c4)ccc3[nH]2)c1 [Compound 2006, 1H-2-[3-(guanidinoacetylamino)phenyl]benzimidazole-5-[N-[3-chloro-4-[N,N-bis(2-chloroethyl)amino]phenyl]]carboxyamide dihydrochloride] | 21

Same assay, conditions: 20 mg/kg, tail vein on 1st day; Colon 26 s.c. in female CDF1 mouse; tumor weight on 15th day vs control 100%

Row | Structure (SMILES) | T/C [%]
22 | COc1cccc2c1C(=O)c1c(O)c3c(c(O)c1C2=O)C[C@@](O)(C(=O)CO)C[C@@H]3O[C@H]1C[C@H](N)[C@H](O)[C@H](C)O1 [Adriamycin, adriamycin, reference compound] | 29

Same assay, conditions: 30 mg/kg, tail vein on 1st day; Colon 26 s.c. in female CDF1 mouse; tumor weight on 15th day vs control 100%

Row | Structure (SMILES) | T/C [%]
23 | N=C(N)NCC(=O)Nc1cccc(-c2nc3cc(C(=O)Nc4ccc(N(CCCl)CCCl)cc4)ccc3[nH]2)c1 [Compound 2001, 1H-2-[3-(guanidinoacetylamino)phenyl]benzimidazole-5-[N-[4-[N,N-bis(2-chloroethyl)amino)phenyl]]carboxyamide dihydrochloride] | 13

Tested on: poly d(A-T)-d(A-T)
Assay: Linkage to DNA, Tm value comparison with and without compound (Test Example 1)
Assay type: binding
Details: poly d(A-T)-d(A-T) in buffer; difference from Tm of the DNA alone
Procedure: Investigation was made on the linkage of each compound to DNA. The test was carried out by comparing a Tm value in the case that the compound was added to the DNA solution with a Tm value in the case that no compound was added thereto.
That is to say, poly d(A-T)-d(A-T) was used as the DNA. This DNA was dissolved in a buffer solution and the compound was further added thereto, and the Tm value was then measured. On the other hand, the Tm of the DNA alone was measured, and a difference (ΔTm) was then calculated. For the measurement, a U-3200 model spectrophotometer made by Hitachi, Ltd. was used, and for the control of temperature, SPR-10 model made by Hitachi, Ltd. was used.

Row | Structure (SMILES) | ΔTm [°C]
24 | N=C(N)NCC(=O)Nc1cccc(-c2nc3cc(C(=O)Nc4ccc(N(CCCl)CCCl)cc4)ccc3[nH]2)c1 [Compound 2001, 1H-2-[3-(guanidinoacetylamino)phenyl]benzimidazole-5-[N-[4-[N,N-bis(2-chloroethyl)amino)phenyl]]carboxyamide dihydrochloride] | 14
